For one data set, the system named is AMPA receptor. The experiment in a line: In vivo electrophysiology: amplitude of field EPSP in dentate gyrus of anesthetized animals. As for the experimental part:
(§1) The electrophysiological effects of the invention compounds were tested in vivo in anesthetized animals according to the following procedures. Animals are maintained under anesthesia by phenobarbital administered using a Hamilton syringe pump. Stimulating and recording electrodes are inserted into the perforant path and dentate gyrus of the hippocampus, respectively. Once electrodes are implanted, a stable baseline of evoked responses are elicited using single monophasic pulses (100 μs pulse duration) delivered at 3/min to the stimulating electrode. Field EPSPs are monitored until a stable baseline is achieved (about 20-30 min), after which a solution of test compound is injected intraperitoneally and evoked field potentials are recorded. Evoked potentials were recorded for approximately 2 h following drug administration or until the amplitude of the field EPSP returns to baseline. In the latter instance, it is common that an iv administration is also carried out with an appropriate dose of the same test compound. Invention compounds were assayed in the in vivo electrophysiology assay described above and data for representative test compounds is shown in column 1 in Table 1.
The electrophysiological effects of invention compounds were tested in vivo in anesthetized animals according to the following procedures.
as §1, with “Animals” for “The electrophysiological effects of the invention compounds were tested in vivo in anesthetized animals according to the following procedures. Animals”, “are” for “were”, “compound.” for “compound. Invention compounds were assayed in the in vivo electrophysiology assay described above and data for representative test compounds is shown in column 1 in Table 1.”

In another data set the test system is Male CD1 mice. Put plainly: Inhibition of d-Amphetamine stimulated locomotion. The note with it: 18 mpk i.p., d-amphetamine 2 mg/kg. It counts as in vivo. As for the experimental part:
The ability of the invention compounds to inhibit d-Amphetamine stimulated locomotor activity was assayed according to the following procedure. Male CD1 mice, 25-30 gm body o weight, were brought into the experimental room and allowed at least 30 min of acclamation.
Each mouse was placed into the testing enclosure with an infrared beam array that automatically monitors the animal's activity. Mice were habituated in the testing enclosure for 20 min, and then returned to their home cage. Mice were dosed intraperitoneally with test compound in appropriate vehicle 5 minutes before d-Amphetamine injection (2 mpk). Ten minutes after d-Amphetamine injection, mice were tested for locomotor activity for a total of 15 minutes. The data was computer collected and expressed as “arbitrary movement units.” All data were analyzed by comparing the groups treated with the test compound to the vehicle control group. The data shown is the % inhibition of hyperactivity induced by acute administration of 2 mg/kg d-amphetamine in mice. […]
Male CD1 mice, 25-30 gm body weight, were brought into the experimental room and allowed at least 30 min of acclamation. […] The data was computer collected and expressed as “arbitrary movement units.” All data were analyzed by comparing the groups treated with the test compound to the vehicle control group.

Twelve compounds from patent US8263591B2, “Bicyclic amides for enhancing glutamatergic synaptic responses” (Cortex Pharmaceuticals, Inc., priority 2007, dated 2012) can be followed below.

The structures appear in SMILES notation.

In the case of `O=C(c1ccc2nonc2c1)N1C2CCC1CC2`, the melting point (in general, the temperature of the solid-liquid transition) was in the range of 143 to 144 °C.
Turning to `O=C(c1ccc2nonc2c1)N1C2CCC1CC(O)C2` (stereo not drawn) [5], the melting point was 169 to 171 °C.
For `O=C(c1ccc2nonc2c1)N1C2CCC1CC(O)C2` (stereo not drawn) [6], the melting point lay within 176 to 177 °C.
In turn, `O=C(c1ccc2nonc2c1)N1C2CCCC1CC2` [Example 1, 8-Azabicyclo[3.2.1]oct-8-yl([2,1,3]-benzoxadiazol-5-yl)methanone] registered a melting point of 128 to 130 °C. Also, the “% increase in the amplitude of the field EPSP in the dentate gyrus of rat” value (“% increase in the amplitude” below) in the data set with AMPA receptor (10 mpk i.p.) is on record as 22%. In addition, the “% Inhibition of d-amphetamine stimulated locomotion” value in the data set on Male CD1 mice was 69%.
The compound `O=C1CC2CCC(C1)N2C(=O)c1ccc2nonc2c1` [Example 2, 8-([2,1,3]-Benzoxadiazol-5-ylcarbonyl)-8-azabicyclo[3.2.1]octan-3-one] returned a melting point of 164 to 166 °C. Besides, the “% increase in the amplitude” value in the data set with AMPA receptor (10 mpk i.p.) came to 16%. Further, the “% Inhibition of d-amphetamine stimulated locomotion” value in the data set on Male CD1 mice is on record as 40%.
`O=C(c1ccc2nonc2c1)N1C2CCC1CC(F)(F)C2` [Example 3, [2,1,3]-Benzoxadiazol-5-yl(3,3-difluoro-8-azabicyclo[3.2.1]oct-8-yl)methanone]: the melting point fell in the range of 165 to 166 °C. Besides, in the data set with AMPA receptor (10 mpk i.p.), the “% increase in the amplitude” value came to 8%.
Take `O=C(c1ccc2nonc2c1)N1C2C=C(F)CC1CC2` (stereo not drawn) [Example 4, [2,1,3]-benzoxadiazol-5-yl(3-fluoro-8-azabicyclo[3.2.1]oct-2-en-8-yl)methanone]: the “% increase in the amplitude” value with AMPA receptor (10 mpk i.p.) stood at 25%.
`O=C(c1ccc2nonc2c1)N1CC2CCC1C2` (stereo not drawn) [Example 7, 2-Azabicyclo[2.2.1]hept-2-yl([2,1,3]-benzoxadiazol-5-yl)methanone]: the melting point was in the range of 92 to 93 °C. For the same compound, the “% increase in the amplitude” value in the data set on AMPA receptor (dosed i.v.) amounted to 20%^3.
`O=C(c1ccc2nonc2c1)N1CC2CCC1CC2` [Example 9, 2-Azabicyclo[2.2.2]oct-2-yl([2,1,3]-benzoxadiazol-5-yl)methanone] returned a melting point of 138 to 139 °C.
`O=C(c1ccc2nonc2c1)N1CC2CC1CO2` (stereo not drawn) [Example 10, [2,1,3]-benzoxadiazol-5-yl(2-oxa-5azabicyclo[2.2.1]hept-5-yl)methanone] showed a melting point of 102 to 104 °C.
In the case of `O=C(c1ccc2nonc2c1)N1CC2C=CC1C2` (stereo not drawn) [Example 11, 2-Azabicyclo[2.2.1]hept-5-en-2-yl([2,1,3]-benzoxadiazol-5-yl)methanone], the melting point fell in the range of 106 to 108 °C.
`O=C(c1ccc2nonc2c1)N1CC2CC1C(Cl)C2Cl` (stereo not drawn) [Example 14, [2,1,3]-Benzoxadiazol-5-yl(5,6-dichloro-2-azabicyclo[2.2.1]hept-2-yl)methanone] returned a melting point of 156 to 157 °C.
